From patent publication US6350782B1, “Use of basic amino acids derivatives for lowering ceramide levels” (Sigma-Tau Industrie Farmaceutiche Riunite S.p.A., priority 1995, dated 2002)

Legend:
[1] = test system: lymphocyte-associated ceramide; assay: Lymphocyte-associated ceramide in hyperthyroidism patients treated with metimazole; assay type: in vivo, human; conditions: 8 g per day oral, 4 weeks
Source text: Ceramide levels can be directly measured by isolating peripheral blood lymphocytes from the patient. Thereafter the cells are centrifuged to eliminate the supernatant, and the lipids are removed from the cell pellet. The organic phase containing the ceramide can be assayed using the “DAG kinase assay” for phosphorylating the ceramide which is then evidenced by autoradiography [Cifone, M. G. et al., J. Exp. Med., 180(4): 1547-52]. Four patients affected by hyperthyroidism who had been treated with metimazole (15 mg by oral route, daily) for more than eight months, were treated for 4 weeks with 8 g per day L-carnitine by oral route. The lymphocyte-associated ceramide was determinded before and after the treatment.

[2] = test system: Ceramide in the muscles; assay: Muscle ceramide in patients with symptomatic neuro-myopathy (chronic fatigue syndrome); assay type: in vivo, human; conditions: 3 g per day oral, two months
Experimental: Two patients affected by symptomatic neuro-myopathy (chronic fatigue syndrome) were treated with 3 g per clay of L-carnitine by oral route through two months. Ceramide was measured in the muscles before and after the administration.

[3] = test system: lymphocyte-associated ceramide; assay: Lymphocyte-associated ceramide in patients with hepato-splenomegaly due to viral hepatitis of C type; assay type: in vivo, human; conditions: 4 g bolus intravenous
Source text: Ceramide levels can be directly measured by isolating peripheral blood lymphocytes from the patient. Thereafter the cells are centrifuged to eliminate the supernatant, and the lipids are removed from the cell pellet. The organic phase containing the ceramide can be assayed using the “DAG kinase assay” for phosphorylating the ceramide which is then evidenced by autoradiography [Cifone, M. G. et al., J. Exp. Med., 180(4): 1547-52]. Three patients with hepato-splenomegaly due to viral hepatitis of C type were treated with 4 g of L-carnitine bolus by intravenous route. The lymphocyte-associated ceramide was determined before and after 3 and 48 hours following the infusion.

[4] = test system: Peripheral blood lymphocytes; assay: Ceramide in anti-Fas antibody stimulated peripheral blood lymphocytes (DAG kinase assay); assay type: cell-based; conditions: for Ceramide: 30 min at 37° C., then anti-Fas antibody 30 min, Control 20, Control + anti-Fas antibody 81.6; for Effect on synthesis of ceramide in vitro: anti-Fas stimulated lymphocytes
Source text: (§1) Ceramide levels can be directly measured by isolating peripheral blood lymphocytes from the patient. Thereafter the cells are centrifuged to eliminate the supernatant, and the lipids are removed from the cell pellet. The organic phase containing the ceramide can be assayed using the “DAG kinase assay” for phosphorylating the ceramide which is then evidenced by autoradiography [Cifone, M. G. et al., J. Exp. Med., 180(4): 1547-52].
Peripheral blood lymphocytes were isolated according to the classical methodologies. The cells were incubated with L-carnitine (200 mcg/ml) or with isovaleryl L-carnitine for 30 min at 37° C., and afterwards with an anti-Fas monoclonal antibody for another 30 min. The cells were then centrifuged, eleminating the supernatant, and the cell pellet was delipidized. The organic phase (containing the ceramide) was assayed in the “DAG kinase assay” for phosphorylating ceramide which subsequently was evidenced by autoradiography.
It is known that the cells suitably stimulated (i.e. with Fas-L, inter-leukin-1, etc.) generate ceramide. An anti-Fas antibody was employed to increase the production of ceramide from a basal value (20 picomoles per 10^6 cells) to 81.6 picomoles per 10^6 cells.

[5] = test system: peripheral blood lymphocyte-associated ceramide; assay: Peripheral blood lymphocyte-associated ceramide in patients with protein catabolism and lipidic depletion from tubercular infection; assay type: in vivo, human; conditions: 8 g per day parenteral, two weeks
Source text: as §1
Four patients affected by protein catabolism and lipidic depletion as a consequence of tubercular infection were treated for two weeks with 8 g per day L-carnitine by parenteral route.
The peripheral blood lymphocyte-associated ceramide was determined before and after the treatment.

For C[N+](C)(C)C[C@H](O)CC(=O)[O-] [L-carnitine], the Ceramide post-treatment ([1]; Patient 1, pre-treatment 73) was 26 picomoles/10^6 cells, the Ceramide post-treatment ([1]; Patient 2, pre-treatment 45) was 27 picomoles/10^6 cells and the Ceramide post-treatment ([1]; Patient 3, pre-treatment 111) was 36 picomoles/10^6 cells. The Ceramide post-treatment ([1]; Patient 4, pre-treatment 69) was 18 picomoles/10^6 cells, the Ceramide post-treatment ([2]; Patient 1, pre-treatment 76) was 28 picomoles per mg of proteins and the Ceramide post-treatment ([2]; Patient 2, pre-treatment 142) was 46 picomoles per mg of proteins. For the same molecule, the “Duration of the effect on ceramide levels” value [3] was “remains at least for two days”, the “Effect of bolus on ceramide levels” value ([3]; after 3 hours from the infusion) was “inhibited the increase of ceramide levels already after 3 hours” and the “Ceramide After 3 hrs” value ([3]; Patient 1, pre-treatment 65) was 12 picomoles/10^6 cells. The “Ceramide After 48 hrs” value ([3]; Patient 1, pre-treatment 65) was 31 picomoles/10^6 cells, the “Ceramide After 3 hrs” value ([3]; Patient 2, pre-treatment 77) was 32 picomoles/10^6 cells and the “Ceramide After 48 hrs” value ([3]; Patient 2, pre-treatment 77) was 21 picomoles/10^6 cells. For the same molecule, the “Ceramide After 3 hrs” value ([3]; Patient 3, pre-treatment 79) was 24 picomoles/10^6 cells, the “Ceramide After 48 hrs” value ([3]; Patient 3, pre-treatment 79) was 23 picomoles/10^6 cells and the Ceramide ([4]; 100 mcg/ml) was 7.3 picomoles per 10^6 cells. The “Effect on synthesis of ceramide in vitro” value [4] was “inhibit the synthesis of ceramide in vitro”, the Ceramide post-treatment ([5]; Patient 1, pre-treatment 127) was 59 picomoles/10^6 cells and the Ceramide post-treatment ([5]; Patient 2, pre-treatment 265) was 77 picomoles/10^6 cells. It also gave a Ceramide post-treatment ([5]; Patient 3, pre-treatment 301) of 152 picomoles/10^6 cells and a Ceramide post-treatment ([5]; Patient 4, pre-treatment 78) of 54 picomoles/10^6 cells.

In the case of CC(C)CC(=O)O[C@H](CC(=O)[O-])C[N+](C)(C)C [isovaleryl L-carnitine], the Ceramide ([4]; 50 mcg/ml) is reported as 8.6 picomoles per 10^6 cells, the Ceramide ([4]; 100 mcg/ml) is reported as 7.3 picomoles per 10^6 cells and the “Effect on synthesis of ceramide in vitro” value [4] is reported as “inhibit the synthesis of ceramide in vitro”.
